Results from PubChem BioAssay (NCI).
Where “and” joins values, the source holds several entries; their conditions need not be identical. Equal entries are not always repeated.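 Cultured in 96-well plates, cells were exposed to test compound for 48 hours across five concentrations. GI50 is the concentration that inhibits growth by half. TGI: concentration producing complete growth inhibition.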 Where a SMILES comes first, the peptide text is derived from it. Bridges are numbered along the chain shown (N, C = ends). [ ]: non-standard residue; d: D form. Aib = CC(C)(N)C(=O)O; βAla = NCCC(=O)O

Key:
Assay in all cases: NCI-60 cell line screen, 48 h
A549 NSCLC = tested on: A549 NSCLC
SNB-19 CNS = tested on: SNB-19 CNS
T-47D breast = tested on: T-47D breast
HS 578T breast = tested on: HS 578T breast
SK-OV-3 ovarian = tested on: SK-OV-3 ovarian
SF-268 CNS = tested on: SF-268 CNS
COLO 205 colon = tested on: COLO 205 colon
HOP-92 NSCLC = tested on: HOP-92 NSCLC
HCT-15 colon = tested on: HCT-15 colon
MOLT-4 leukemia = tested on: MOLT-4 leukemia
RPMI-8226 leukemia = tested on: RPMI-8226 leukemia
OVCAR-8 ovarian = tested on: OVCAR-8 ovarian

Structure (SMILES)	TGI (A549 NSCLC)	TGI (SNB-19 CNS)	TGI (T-47D breast)	TGI (HS 578T breast)	TGI (SK-OV-3 ovarian)	TGI (SF-268 CNS)	TGI (COLO 205 colon)	TGI (HOP-92 NSCLC)	TGI (HCT-15 colon)	TGI (MOLT-4 leukemia)	TGI (RPMI-8226 leukemia)	TGI (OVCAR-8 ovarian)	GI50 (A549 NSCLC)	GI50 (OVCAR-8 ovarian)
CCc1cccc(C(C)C)c1NC(=O)C(=O)C1C(=O)Nc2ccccc2S1=O (centres undefined)	> 100 µM	> 100 µM	> 100 µM	> 100 µM	> 100 µM	> 100 µM	> 100 µM	> 100 µM	> 100 µM	> 100 µM	> 100 µM	> 100 µM	–	–
Cc1ccc([N+](=O)[O-])cc1S(=O)(=O)Nc1ccc(C2=NN(S(=O)(=O)c3cc([N+](=O)[O-])ccc3C)C(c3ccccc3)C2)cc1 (centres undefined)	> 100 µM	> 100 µM	> 100 µM	21.2 µM	> 100 µM	56.7 µM	78.8 µM	> 100 µM	> 100 µM	> 100 µM	76.1 µM	> 100 µM	–	–
CN1C(=O)C2(C)SC1(c1ccccc1)C1C(=O)N(c3ccccc3)C(=O)C12 (centres undefined)	> 100 µM	> 100 µM	> 100 µM	> 100 µM	> 100 µM	> 100 µM	> 100 µM	> 100 µM	> 100 µM	> 100 µM	> 100 µM	> 100 µM	–	–
CC1(C)NC(=O)C(NC(=O)C(N)CC(=O)O)CCCCNC(=O)CCNC1=O (centres undefined) (H-DK[Aib][βAla]; lactam 2-C; configuration not given here)	> 100 µM	> 100 µM	> 100 µM	> 100 µM	> 100 µM	> 100 µM	> 100 µM	> 100 µM	> 100 µM	> 100 µM	> 100 µM	> 100 µM	–	–
CCOC1CN=C(Nc2cccc3ccccc23)S1 (centres undefined)	> 10 µM	> 10 µM	> 10 µM	> 10 µM	> 10 µM	> 10 µM	> 10 µM	> 10 µM	> 10 µM	> 10 µM	> 10 µM	> 10 µM	–	–
C[C@H](C1CC(C)(O)C(C)(O)C(O)O1)[C@H]1CC[C@H]2[C@@H]3[C@@H]4O[C@@H]4[C@@]4(O)CC=CC(=O)[C@]4(C)[C@H]3CC[C@]12C (some centres undefined)	> 50 µM	> 50 µM	> 50 µM	17.4 µM	> 50 µM	> 50 µM	> 50 µM	> 50 µM	> 50 µM	> 50 µM	> 50 µM	> 50 µM	–	–
CC1OC(OC2C(OC(=O)[C@]34CCC(C)(C)C[C@H]3C3=CC[C@@H]5[C@@]6(C)CC[C@H](OC7OC(C(=O)O)C(O)C(O)C7O)C(C)(C)[C@@H]6CC[C@@]5(C)[C@]3(C)C[C@H]4O)OCC(O)C2O)C(O)C(O)C1OC1OCC(O)C(O)C1O (some centres undefined)	25.3 µM and 20.4 µM	25.8 µM and 23.8 µM	96.2 µM and 30.6 µM	39.5 µM and 39.3 µM	33.1 µM and 32 µM	34.6 µM and 25.4 µM	12.3 µM and 3.98 µM	26.9 µM and 24.4 µM	31.6 µM and 33.7 µM	34.6 µM and 74.8 µM	30.4 µM and 94 µM	26.5 µM and 5.19 µM	11.8 µM and 5.48 µM	13.2 µM and 2.33 µM
OC1(C(Sc2cc(C(F)(F)F)cc(C(F)(F)F)c2)Sc2cc(C(F)(F)F)cc(C(F)(F)F)c2)C=CCCC1 (centres undefined)	6.1 µM	8.2 µM	4.26 µM	13.3 µM	11.3 µM	8.81 µM	5.59 µM	9.15 µM	4.13 µM	5.08 µM	4.8 µM	7.9 µM	–	–
N#C/C(=C\c1ccc(F)cc1)c1nc(-c2cc3ccccc3oc2=O)cs1	> 100 µM	41.1 µM	> 100 µM	56.7 µM	67.5 µM	46.2 µM	> 100 µM	29.5 µM	> 100 µM	> 100 µM	> 100 µM	71.9 µM	–	–
CC1=C(C(=O)OC2CC3CCC2(C)C3(C)C)C2Nc3ccccc3N(C)C2O1 (centres undefined)	4.53 µM	10.1 µM	11.8 µM	16.3 µM	14.5 µM	22.5 µM	2.4 µM	20.8 µM	5.6 µM	6.69 µM	6.78 µM	9.02 µM	–	–
CO/C=C/C=C(\C#N)C(=O)OC	> 100 µM	> 100 µM	> 100 µM	> 100 µM	> 100 µM	> 100 µM	> 100 µM	> 100 µM	> 100 µM	> 100 µM	> 100 µM	> 100 µM	–	–
